Measurements as given in patent US10308644B2, “Heterocyclic compounds as immunomodulators” (Incyte Corporation, priority 2016, dated 2019).

Target: PD-1/PD-L1 (Homo sapiens (Human), UniProt Q9NZQ7)
Test: PD-1/PD-L1 Homogeneous Time-Resolved Fluorescence (HTRF) Binding Assay
Settings: recombinant human PD-1 (3 nM) and PD-L1 (10 nM), 25° C., PBS pH 7.4
Description: Example A. PD-1/PD-L1 Homogeneous Time-Resolved Fluorescence (HTRF) Binding Assay
The assays were conducted in a standard black 384-well polystyrene plate with a final volume of 20 μL. Inhibitors were first serially diluted in DMSO and then added to the plate wells before the addition of other reaction components. The final concentration of DMSO in the assay was 1%. The assays were carried out at 25° C. in the PBS buffer (pH 7.4) with 0.05% Tween-20 and 0.1% BSA. Recombinant human PD-L1 protein (19-238) with a His-tag at the C-terminus was purchased from AcroBiosystems (PD1-H5229). Recombinant human PD-1 protein (25-167) with Fc tag at the C-terminus was also purchased from AcroBiosystems (PD1-H5257). PD-L1 and PD-1 proteins were diluted in the assay buffer and 10 μL was added to the plate well. Plates were centrifuged and proteins were preincubated with inhibitors for 40 minutes. The incubation was followed by the addition of 10 μL of HTRF detection buffer supplemented with Europium cryptate-labeled anti-human IgG (PerkinElmer-AD0212) specific for Fc and anti-His antibody conjugated to SureLight®-Allophycocyanin (APC, PerkinElmer-AD0059H). After centrifugation, the plate was incubated at 25° C. for 60 min. before reading on a PHERAstar FS plate reader (665 nm/620 nm ratio). Final concentrations in the assay were—3 nM PD1, 10 nM PD-L1, 1 nM europium anti-human IgG and 20 nM anti-His-Allophycocyanin. IC50 determination was performed by fitting the curve of percent control activity versus the log of the inhibitor concentration using the GraphPad Prism 5.0 software.

Chain of PD-1/PD-L1 (Q9NZQ7 19-238): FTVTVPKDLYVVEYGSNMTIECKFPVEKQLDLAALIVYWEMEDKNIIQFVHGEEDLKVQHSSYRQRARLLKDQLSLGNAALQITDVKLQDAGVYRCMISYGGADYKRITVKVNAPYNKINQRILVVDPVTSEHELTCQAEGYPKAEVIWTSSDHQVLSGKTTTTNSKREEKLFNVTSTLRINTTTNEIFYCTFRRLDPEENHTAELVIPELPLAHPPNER

Row | Compound | IC50
1 | Cc1c(-c2nc3cc(CN4CC[C@@H](C(=O)O)C4)cc(C#N)c3o2)cccc1-c1cccc(-c2nc3c(s2)CN(C(=O)CN(C)C)C3)c1C [Example 105, (R)-1-((7-cyano-2-(3′-(5-(2-(dimethylamino)acetyl)-5,6-dihydro-4H-pyrrolo[3,4-d]thiazol-2-yl)-2,2′-dimethylbiphenyl-3-yl)benzo[d]oxazol-5-yl)methyl)pyrrolidine-3-carboxylic acid] | ≤ 10 nM
2 | Cc1c(-c2nc3cc(CN4CCC(C(=O)O)CC4)cc(C#N)c3o2)cccc1-c1cccc(NC(=O)c2nc3c(n2C)CCN(C)C3)c1Cl [Example 89, 1-((2-(2′-chloro-3′-(1,5-dimethyl-4,5,6,7-tetrahydro-1H-imidazo[4,5-c]pyridine-2-carboxamido)-2-methylbiphenyl-3-yl)-7-cyanobenzo[d]oxazol-5-yl)methyl)piperidine-4-carboxylic acid] | ≤ 10 nM
3 | Cc1c(Nc2nccc3cc(CN4CC[C@H](O)C4)cnc23)cccc1-c1cccc(-c2nc3cc(CN4CC[C@@H](C(=O)O)C4)cc(Cl)c3o2)c1C [Example 16, (R)-1-((7-chloro-2-(3′-(3-(((S)-3-hydroxypyrrolidin-1-yl)methyl)-1,7-naphthyridin-8-ylamino)-2,2′-dimethylbiphenyl-3-yl)benzo[d]oxazol-5-yl)methyl)pyrrolidine-3-carboxylic acid] | ≤ 10 nM
4 | Cc1c(-c2nc3cc(CN4CC[C@@H](C(=O)O)C4)cc(C#N)c3o2)cccc1-c1cccc(-c2nc3c(s2)CN(CCO)CC3)c1C [Example 65, (R)-1-((7-cyano-2-(3′-(5-(2-hydroxyethyl)-4,5,6,7-tetrahydrothiazolo[5,4-c]pyridin-2-yl)-2,2′-dimethyl-[1,1′-biphenyl]-3-yl)benzo[d]oxazol-5-yl)methyl)pyrrolidine-3-carboxylic acid] | ≤ 10 nM
5 | Cc1c(-c2nc3cc(CN4CC[C@@H](C(=O)O)C4)cc(C#N)c3o2)cccc1-c1cccc(Nc2cncc3nccnc23)c1Cl [Example 15, (R)-1-((2-(2′-chloro-2-methyl-3′-(pyrido[3,4-b]pyrazin-8-ylamino)biphenyl-3-yl)-7-cyanobenzo[d]oxazol-5-yl)methyl)pyrrolidine-3-carboxylic acid] | ≤ 10 nM
6 | Cc1c(-c2nc3cc(CN4CCCC[C@H]4C(=O)O)cc(Cl)c3o2)cccc1-c1cccc(NC(=O)c2ccc(CNCCO)cn2)c1Cl [Example 1, (S)-1-((7-chloro-2-(2′-chloro-3′-(5-(((2-hydroxyethyl)amino)methyl)picolinamido)-2-methyl-[1,1′-biphenyl]-3-yl)benzo[d]oxazol-5-yl)methyl)piperidine-2-carboxylic acid] | ≤ 10 nM
7 | Cc1c(-c2nc3cc(CN4CC[C@@H](C(=O)O)C4)cc(Cl)c3o2)cccc1-c1cccc(-c2nc3c(s2)CN(CCO)CC3)c1C [Example 61, (R)-1-((7-chloro-2-(3′-(5-(2-hydroxyethyl)-4,5,6,7-tetrahydrothiazolo[5,4-c]pyridin-2-yl)-2,2′-dimethyl-[1,1′-biphenyl]-3-yl)benzo[d]oxazol-5-yl)methyl)pyrrolidine-3-carboxylic acid] | ≤ 10 nM
8 | Cc1c(-c2nc3cc(CN4CC[C@H](O)C4)cc(Cl)c3o2)cccc1-c1cccc(-c2nc3cc(CN4CC[C@H](C(=O)O)C4)cc(Cl)c3o2)c1C [Example 10, (S)-1-((7-chloro-2-(3′-(7-chloro-5-(((S)-3-hydroxypyrrolidin-1-yl)methyl)benzo[d]oxazol-2-yl)-2,2′-dimethylbiphenyl-3-yl)benzo[d]oxazol-5-yl)methyl)pyrrolidine-3-carboxylic acid] | ≤ 10 nM
9 | Cc1c(Nc2nccc3nccnc23)cccc1-c1cccc(-c2nc3cc(CN4CC[C@@H](C(=O)O)C4)cc(Cl)c3o2)c1C [Example 11, (R)-1-((7-chloro-2-(2,2′-dimethyl-3′-(pyrido[4,3-b]pyrazin-5-ylamino)biphenyl-3-yl)benzo[d]oxazol-5-yl)methyl)pyrrolidine-3-carboxylic acid] | ≤ 10 nM
10 | Cc1c(Nc2nccc3cc(CNCCO)cnc23)cccc1-c1cccc(-c2nc3cc(CNCCC(=O)O)cc(Cl)c3o2)c1C [Example 6, 3-(((7-chloro-2-(3′-((3-(((2-hydroxyethyl)amino)methyl)-1,7-naphthyridin-8-yl)amino)-2,2′-dimethyl-[1,1′-biphenyl]-3-yl)benzo[d]oxazol-5-yl)methyl)amino)propanoic acid] | ≤ 10 nM

Further lines, results first:

Row | IC50 | Compound
11 | ≤ 10 nM | Cc1c(Nc2ncnc3cc(CNC[C@H](C)O)cnc23)cccc1-c1cccc(-c2nc3cc(CN4CC[C@@](C)(C(=O)O)C4)cc(C#N)c3o2)c1C [Example 208, (R)-1-((7-cyano-2-(3′-(7-(((S)-2-hydroxypropylamino)methyl)pyrido[3,2-d]pyrimidin-4-ylamino)-2,2′-dimethylbiphenyl-3-yl)benzo[d]oxazol-5-yl)methyl)-3-methylpyrrolidine-3-carboxylic acid]
12 | ≤ 10 nM | Cc1c(-c2nc3cc(CN4CC[C@@](C)(C(=O)O)C4)cc(C#N)c3o2)cccc1-c1cccc(Nc2nccc3cc(CN4CC[C@@H](O)C4)cnc23)c1Cl [Example 187, (R)-1-((2-(2′-chloro-3′-(3-(((R)-3-hydroxypyrrolidin-1-yl)methyl)-1,7-naphthyridin-8-ylamino)-2-methylbiphenyl-3-yl)-7-cyanobenzo[d]oxazol-5-yl)methyl)-3-methylpyrrolidine-3-carboxylic acid]
13 | ≤ 10 nM | Cc1c(-c2nc3cc(CN4CC[C@@](C)(C(=O)O)C4)cc(C#N)c3o2)cccc1-c1cccc(NC(=O)c2nc3c(n2C)CN(C)C3)c1Cl [Example 158, (R)-1-((2-(2′-chloro-3′-(1,5-dimethyl-1,4,5,6-tetrahydropyrrolo[3,4-d]imidazole-2-carboxamido)-2-methylbiphenyl-3-yl)-7-cyanobenzo[d]oxazol-5-yl)methyl)-3-methyl pyrrolidine-3-carboxylic acid]
14 | ≤ 10 nM | Cc1c(Nc2nccc3cc(CN4CCC(C(=O)O)CC4)cnc23)cccc1-c1cccc(-c2nc3cc(CN4CC[C@@H](O)C4)cc(C#N)c3o2)c1C [Example 214, (R)-1-((8-(3′-(7-cyano-5-((3-hydroxypyrrolidin-1-yl)methyl)benzo[d]oxazol-2-yl)-2,2′-dimethylbiphenyl-3-ylamino)-1,7-naphthyridin-3-yl)methyl)piperidine-4-carboxylic acid]
15 | ≤ 10 nM | Cc1c(Nc2nccc3cc(CN4CC[C@@H](O)C4)cnc23)cccc1-c1cccc(-c2nc3cc(CN4CC5CC4CC5C(=O)O)cc(C#N)c3o2)c1C (stereo partly drawn) [Example 176, 2-((7-cyano-2-(3′-(3-(((R)-3-hydroxypyrrolidin-1-yl)methyl)-1,7-naphthyridin-8-ylamino)-2,2′-dimethylbiphenyl-3-yl)benzo[d]oxazol-5-yl)methyl)-2-aza bicyclo[2.2.1]heptane-5-carboxylic acid]
16 | ≤ 10 nM | Cc1c(NC(=O)c2nc3c(n2C)CCN(C)C3)cccc1-c1cccc(-c2nc3cc(CN4CC[C@@](C)(C(=O)O)C4)cc(C#N)c3o2)c1C [Example 260, (R)-1-((7-cyano-2-(3′-(1,5-dimethyl-4,5,6,7-tetrahydro-1H-imidazo[4,5-c]pyridine-2-carboxamido)-2,2′-dimethylbiphenyl-3-yl)benzo[d]oxazol-5-yl)methyl)-3-methylpyrrolidine-3-carboxylic acid]
